Measured values from patent US20220395490A1, “TREATMENT OF ARTHRITIS” (Inflazome Limited, priority 2019, published 2022).
Where two headings read alike, the source gives them in different places.

Legend:
[1] = tested on: MSU-induced knee inflammation (gout) in male Wistar rats; format: in vivo; details: for left knee diameter on DAY 3: vehicle group 15.0 mm; for response to mechanical allodynia on DAY 3: vehicle group 5.8; for reduction in the MSU-induced edema and pain: daily
Experimental: To determine the oral anti-inflammatory and anti-nociceptive efficacy of therapeutic treatment with the compound of formula (I) in a rodent model MSU-induced knee inflammation (gout) in male Wistar rats.
300 mg MSU crystal were suspended in 7.5 ml PBS (Sigma, Cat. D8662, lot. RNBG0405, exp. April 2019) to prepare a 40 mg/ml suspension. Material was kept in a sonicating water bath to maintain homogeneous suspension between injections. The rats were weighed.
The rats were anesthetized (SOP 1810), knees were shaved, and injected into the left knee with 50 μl MSU (2 mg) crystals using a 25 G needle fitted to a 1 ml syringe.
Group 1=PBS (Sigma, Cat. D8662, lot RNBG0405, exp. […]). Dosed at 1 ml/kg, PO.
Group 3=37 mg of the compound of formula (I) was dissolved in 3.7 ml PBS to prepare a 10 mg/ml solution. Dosed at 1 ml/kg, PO.
Test materials were made fresh daily. All rats were weighed and dosed by intraperitoneal injection or orally. Mechanical allodynia responses and knee diameters were recorded one hour post dosing.
On DAY 3, four hours after dosing, the rats were anesthetized and exsanguinated into pre-chilled K2 EDTA vacutainer tubes (Becton Dickinson, Cat. 367844, lot 6253682, exp. Jan. 31, 2018). The blood was processed to plasma, gently mixed and centrifuged at 4° C. 1800g for 10 minutes not later than 20 minutes from blood collection, which was stored in two 90 μl minimum volume and four 20 μl aliquots were prepared in labeled eppendorf tubes, and immediately stored frozen at −80° C. The carcasses were disposed of appropriately.

[2] = tested on: MSU-induced knee inflammation (gout) in male Wistar rats; assay: Prophylactic efficacy in rodent model of MSU-induced knee inflammation (gout); format: in vivo; details: for effect on pain associated with MSU-induced knee edema (mechanical allodynia, von Frey) / inhibition of the MSU-stimulated knee edema: 10 mg/kg once daily oral
Experimental: To determine the oral anti-inflammatory and anti-nociceptive efficacy of prophylactic treatment with the compound of formula (I) in a rodent model MSU-induced knee inflammation (gout) in male Wistar rats.
A. Preparation of MSU crystals: • 1. 4 g uric acid was dissolved in 800 ml 0.03 N NaOH and heated to 60° C. NaOH was added as required to maintain pH 8.9. The solution was stored overnight at 4-8° C. • 2. Crystals were filtered, washed and dried. • 3. Crystals were suspended in sterile saline just prior to use.
B. Efficacy Study: • 1. […] DAY −1. Baseline readings were taken
Baseline knee diameters were measured by digital caliper.
Baseline responses to mechanical allodynia, as measured by von Frey fibres, were recorded. • 3. DAY 0:
a. The rats were weighed and dosed by oral gavage with vehicle, prednisolone (10 mg/kg) or the compound of formula (I) (1, 3 or 10 mg/kg)
b. One hour after dosing, rats in Groups 1-5 were anesthetized and injected IA into the left knee with 2 mg MSU in 50 μl saline. • 4. DAY 1:
a. Rats were weighed and dosed as on DAY 0.
b. One hour after dosing, mechanical allodynia and knee diameters were measured and recorded. • 5. DAY 2:
b. One hour after dosing, mechanical allodynia and knee diameters were measured and recorded.
c. Four hours after final dosing, terminal bleeds were collected.

[3] = 1 mg/kg (Group 5) once daily oral, starting one hour prior to intra-articular 2 mg MSU
[4] = starting one hour prior to intra-articular 2 mg MSU

effect on animal weight ([2]; sodium salt in PBS, once daily oral, 1, 3 or 10 mg/kg)	effect on animal weight ([2]; prednisolone 10 mg/kg once daily oral)	Compound	left knee diameter on DAY 3 ([1]; 10 mg/kg PO once daily Day 1-3 after 2 mg MSU, baseline 12.3 mm) [mm]	response to mechanical allodynia on DAY 3 ([1]; 10 mg/kg PO once daily Day 1-3 after 2 mg MSU, baseline 14.5)	reduction in the MSU-induced edema and pain ([1]; 10 mg/kg orally)	reduction of knee edema [2, 3] [%]	reduction of pain response (mechanical allodynia) [2, 3] [%]	efficacy of intermediate dose compared with high dose (10 mg/kg) ([2]; 3 mg/kg (Group 4) once daily oral)	effect on pain associated with MSU-induced knee edema (mechanical allodynia, von Frey) [2, 4]	inhibition of the MSU-stimulated knee edema [2, 4] [%]	inhibition of the MSU-stimulated response across doses ([2]; once daily oral 1, 3, 10 mg/kg)	left knee diameter on DAY 3 ([1]; Anakinra 50 mg/kg IP once daily Day 1-3 after 2 mg MSU, baseline 12.4 mm) [mm]	response to mechanical allodynia on DAY 3 ([1]; Anakinra 50 mg/kg IP once daily Day 1-3 after 2 mg MSU, baseline 13.9)	reduction in the MSU-induced edema and pain ([1]; Anakinra 50 mg/kg by peritoneal injection)	effect on animal health ([1]; rat, in vivo, ip)
no significant effect	–	CC(C)n1ccc(S(=O)(=O)NC(=O)Nc2c3c(cc4c2CCC4)CCC3)n1 [compound of formula (I)]	13.6	12.5 grams of pressure	significant reduction	34	66	no significant difference	complete blockade	49	significant dose-dependent inhibition	–	–	–	–
–	no significant effect	C[C@]12C=CC(=O)C=C1CC[C@@H]1[C@@H]2[C@@H](O)C[C@@]2(C)[C@H]1CC[C@]2(O)C(=O)CO [prednisolone, reference compound]	–	–	–	–	–	–	significant insensitivity to pain	52	–	–	–	–	–
–	–	Anakinra	–	–	–	–	–	–	–	–	–	14.0	9.0 grams of pressure	significant reduction	no effect
